Experimental findings from patent US7514432B2, “Compounds and methods of treating cell proliferative diseases, retinopathies and arthritis” (Exonhit Therapeutics SA, priority 2003, dated 2009) are described below.

Where two headings read alike, the source gives them in different places.

For one experiment, the system named is MDA-MB-231. Briefly: Cell viability assay (MTT), MDA-MB-231. In kind it is cell-based, human. The note with it: 1% DMSO. In a few lines: (§1)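 Cells seeded 24 h before treatment with 0–200 μM compound (11 concentrations, 1% DMSO final) in 10% or 0.5% FBS medium; exposure 16 h, 3 or 6 days, fed every 3 days in 6-day runs. MTT 0.5 mg/ml read at 550 nm; IC50 from dose-response curves, mean±SEM.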

The subject of another experiment is HMEC-1 cells. The experiment can be described thus: Tubule formation (tubulogenesis) assay on Matrigel. In kind it is cell-based, Human. The settings on record: HMEC1 on Matrigel; for IC50: Homo sapiens, HMEC-1, 6 to 8 hours, read-out: IC50, tubulogenesis (number of junctions). Here is the method: FIG. 5: Tubulogenesis assay (number of junctions). 2 10^4 Cells were plated on Matrigel-coated wells as described in the material and methods. Pictures of each well were taken after a 7-hours incubation. The “number of junctions” parameter was quantitated using the AngioSys software and data were analyzed using GraphPad Prism for IT50 calculation. Values represent the mean±SEM of 2 to 30 independent experiments.
The endothelial cell tube formation assay, or tubulogenesis assay, is an in vitro assay that is widely accepted to accurately reflect number of terminal stages of the angiogenic process such as attachment, migration and differentiation into tubular structures. In this model, endothelial cells are cultured on a monolayer of reconstituted basement membrane components (Matrigel) and form, in a few hours, capillary-lilke structure. Therefore, this system is a useful and powerful tool for rapidly screening anti-angiogenic agents by monitoring inhibition of endothelial cells morphogenesis on extracellular matrix.
HMEC-1 cell line is cultured in MCDB-131 medium (Sigma) supplemented with 15% FBS, 10 ng/ml recombinant human epidermal growth factor (Invitrogen) and 1 μg/ml hydrocortisone. Cells are cultured to 70-80% confluence. A 96-well plate was coated with Matrigel® Basement Membrane Matrix (Becton Dickinson). 2 10^4 HMEC-1 cells were seeded into each well. The test or control compounds were diluted in DMSO and added to the coated plate. The plate was subsequently incubated for 6 to 8 hours at 37° C., 5% CO2 atmosphere to allow tubule formation. The cells were then incubated with 1.25 μg/ml Calcein AM for 15 minutes at 37° C., 5% CO2. Pictures of each well were taken using a fluorescent microscope and a digital camera (Nikon Coolpix 990). Images were analysed using AngioSys software (TCS Cellworks) that allows quantification of the total tubule length and of the number of junctions, two parameters representative of tubule formation/disruption. Data was analyzed using the GraphPad Prism software, and IT50s (dose leading to 50% inhibition of tubulogenesis) was calculated.

In a further experiment the test system is HCT116. The experiment can be described thus: Cell viability assay (MTT), HCT116. The format is cell-based, human. The settings on record: 1% DMSO. In a few lines:
as §1

The mark [1] stands for this setting: Homo sapiens, MDA-MB-231, 16 h, 10% FBS, 16-hours treatment, read-out: IC50 μM, MDA-MB-231.
Setting [2] is: Homo sapiens, MDA-MB-231, 72 h, 10% FBS, 3-day treatment, read-out: IC50 μM, MDA-MB-231.
[3] abbreviates: Homo sapiens, MDA-MB-231, 144 h, 0.5% FBS, 6-day treatment, read-out: IC50 (μM), MDA-MB-231.
Setting [4] is: Homo sapiens, HCT-116, 16 h, 10% FBS, 16-hours treatment.
Setting [5] is: Homo sapiens, HCT-116, 72 h, 10% FBS, 3-day treatment.
[6] abbreviates: Homo sapiens, HCT-116, 144 h, 0.5% FBS, 6-day treatment.
The mark [7] stands for this setting: Homo sapiens, HCT-116, 144 h, 10% FBS, 6-day treatment.
The mark [8] stands for this setting: 10% FBS, 6-day treatment, trihydrochloride.

Regarding `Cl.Cl.O=c1cc(CN2CCOCC2)occ1OCCCCCSc1ccnc2cc(C(F)(F)F)ccc12` [EHT 1864, 5-(5-(7-(Trifluoromethyl)quinolin-4-ylthio)pentyloxy)-2-(morpholinomethyl)-4H-pyran-4-one dihydrochloride], the half-maximal inhibitory concentration (IC50) (commonly the concentration that inhibits the measured activity by half) with MDA-MB-231 (10% FBS, 6-day treatment, dihydrochloride, read-out: IC50 μM, MDA-MB-231) was 9.3 µM; in the experiment with MDA-MB-231 (setting [1]), 126 µM; with MDA-MB-231 (setting [2]), 9.9 µM; in the experiment with MDA-MB-231 (setting [3]) it was 6.3 µM; in the experiment with MDA-MB-231 (Homo sapiens, MDA-MB-231, 144 h, 10% FBS, 6-day treatment, read-out: IC50 μM, MDA-MB-231), < 9 µM; in the experiment on HMEC-1 cells it was 34.9 ± 3.5 µM. Moreover, the IC50 in the experiment with HCT116 (10% FBS, 6-day treatment, dihydrochloride) is 2.7 µM; in the experiment with HCT116 (setting [4]), 37 µM; in the experiment with HCT116 (setting [5]), 6.1 µM; in the experiment on HCT116 (setting [6]), 6.6 µM; with HCT116 (setting [7]), < 4 µM. For the same compound, the “fold more active than reference compound CAI in tubulogenesis” value in the experiment with HMEC-1 cells worked out at 4 fold.
With `CN1CCN(Cc2cc(=O)c(OCCCCCSc3ccnc4cc(C(F)(F)F)ccc34)co2)CC1.Cl.Cl.Cl` [EHT 9241, 5-(5-(7-(Trifluoromethyl)quinolin-4-ylthio)pentyloxy)-2-((4-methylpiperazin-1-yl)methyl)-4H-pyran-4-one trihydrochloride], the half-inhibitory concentration (IC50) in the experiment with MDA-MB-231 (10% FBS, 6-day treatment, trihydrochloride, read-out: IC50 μM, MDA-MB-231) amounted to 5.3 µM; with MDA-MB-231 (setting [1]), 48.4 µM; in the experiment on MDA-MB-231 (setting [2]), 11.1 µM; with MDA-MB-231 (setting [3]), 3.8 µM; in the experiment with HMEC-1 cells it was 26 ± 8.7 µM; with HCT116 (setting [8]), 4 µM. The IC50 in the experiment on HCT116 (setting [4]) is 31.3 µM; in the experiment on HCT116 (setting [5]), 5.7 µM; in the experiment with HCT116 (setting [6]), 6.2 µM; with HCT116 (setting [7]), < 4 µM.
`Cl.Cl.Cl.O=c1cc(CN2CCNCC2)occ1OCCCCCSc1ccnc2cc(C(F)(F)F)ccc12` [EHT 8560, 5-(5-(7-(Trifluoromethyl)quinolin-4-ylthio)pentyloxy)-2-((piperazin-1-yl)methyl)-4H-pyran-4-one trihydrochloride]: the 50% inhibitory concentration (IC50) amounted to 9 µM in the experiment on MDA-MB-231 (setting [2]); 4 µM with MDA-MB-231 (setting [3]); 17 ± 3.6 µM in the experiment with HMEC-1 cells; 3.8 µM with HCT116 (setting [8]); 4 µM with HCT116 (setting [5]); 4.6 µM in the experiment with HCT116 (setting [6]). In the experiment with HCT116 (setting [7]), the IC50 was < 4 µM.
